Measurements from patent US9258995B2, “Organ cold storage composition and methods of use” (BOARD OF TRUSTEES OF THE UNIVERSITY OF ARKANSAS, priority 2009, dated 2016).

Columns and labels:
[1] = test system: NRK cells; test: LDH cytotoxicity assay, CS and CS plus rewarming; format: cell-based; settings: 1 μM
Description: Normal rat kidney proximal tubular cells (NRK-52E; American Type Culture Collection, Manassas, Va.) were maintained in six-well 100 or 150-mm, or 150-mm plates in a humidified incubator gassed with 5% CO2 and 95% air at 37° C. in DMEM (Invitrogen, Carlsbad, Calif.) containing 5% fetal calf serum (FCS). Cells were grown to 60% confluence and divided into four treatment groups: 1) untreated (Untx), 2) CS, 3) CS+MitoQ, and 4) CS+DecylTPP. Untreated cells remained at 37° C. in DMEM containing 5% FCS (group 1). CS was initiated by washing cells with cold PBS (Invitrogen) twice and storing them in UW/Viaspan solution alone (4 h at 4° C.) (group 2), CS+MitoQ (1 μM) (group 3), or CS+DecylTPP (1 μM) (group 4). In separate experiments, cells were exposed to CS plus RW by replacing UW solution alone or UW solution containing MitoQ or DecylTPP with DMEM containing 5% FCS overnight (18 h at 37° C.).
Cell cytotoxicity was determined using the LDH-Cytotoxicity Assay Kit II (Biovision Research Products, Mountain View, Calif.) according to the manufacturer's instructions. Absorbance was measured at 450 nm using a SpectraMax 190 microplate reader and SpectraMax software (Molecular Devices, Sunnyvale, Calif.). Renal cell death was determined using TUNEL staining. Kidney sections were deparaffinized, rehydrated, and exposed to antigen retrieval (20-min incubation at 95° C. with 10 mM sodium citrate buffer, pH 6.0) followed by washing with distilled water and quenching of endogenous peroxidase. Sections were immersed in TdT labeling buffer and then incubated in a humidified chamber with the labeling reaction mix from the TAGS 2 TdT-DAB In Situ Apoptosis Detection kit (Trevigen, Inc., Gaithersburg, Md.) for 1 h at room temperature. The reaction was stopped with TdT stop buffer, and slides were subsequently washed with PBS. Sections were incubated for 10 min with streptavidin-HRP followed by development with diaminobenzidine solution, counterstaining with Mayer's hematoxylin, dehydration, and mounting with Cytoseal-60. The amount of cell death was calculated by averaging the number of cells positive for TUNEL (brown staining) in 10 different fields (cortex and medulla) (20×). All images were taken at equal exposure times (40×oil).

[2] = test system: NRK cells; test: MitoSOX Red mitochondrial superoxide generation, cold storage in vitro model; format: cell-based, rat; settings: 4 h CS at 4° C. in UW, 1 μM
Description: Normal rat kidney proximal tubular cells (NRK-52E; American Type Culture Collection, Manassas, Va.) were maintained in six-well 100 or 150-mm, or 150-mm plates in a humidified incubator gassed with 5% CO2 and 95% air at 37° C. in DMEM (Invitrogen, Carlsbad, Calif.) containing 5% fetal calf serum (FCS). Cells were grown to 60% confluence and divided into four treatment groups: 1) untreated (Untx), 2) CS, 3) CS+MitoQ, and 4) CS+DecylTPP. Untreated cells remained at 37° C. in DMEM containing 5% FCS (group 1). […]
MitoSOX Red (Invitrogen) was used to measure mitochondrial superoxide generation during CS. […] Fluorescence was visualized using an Eclipse E800 microscope (Nikon, Melville, N.Y.) with a rhodamine filter using a water immersion objective (60×). Fluorescent images of NRK cells were captured with equal exposure times and quantified by averaging the mean intensity fluorescence of five random cells in three different fields using Nikon N is Elements software. In separate experiments, cells were grown on coverslips, preloaded with MitoSOX Red before treatment (groups 1-4), and evaluated for mitochondrial superoxide generation using a Hitachi F-2500 spectrofluorometer (Hitachi, Tokyo, Japan) equipped with a coverslip holder using two different excitation wavelengths: 396 and 510 nm with the emission measured at 580 nm as previously described. […]

[3] = test system: rat kidneys; test: Periodic acid-Schiff morphological assessment of renal injury during CS; settings: 4 h CS, 100 μM
Description: All animals were treated according to the National Institutes of Health Guide for the Care and Use of Laboratory Animals and the University of Arkansas for Medical Sciences Institutional Animal Care and Use Committee guidelines. Male Fischer 344 inbred rats (Charles Rivers Laboratories, Inc., Wilmington, Mass.) weighing between 250 and 300 g were anesthetized with ethrane, followed by shaving and prepping with betadine. […] Bulldog clamps were placed on the aorta and vena cava (proximal and distal to the renal vessels) to prevent blood flow to the kidneys. A 22-gauge surgical needle was used to puncture the rat's aorta to flush the renal grafts with saline (10 ml per kidney) using a small catheter. Once the kidneys started to turn light brown (perfusion), another vent was formed in the vena cava to allow blood flow from the kidneys. Once both kidneys were completely flushed, the right kidney was recovered and served as a control (group 1), and the left kidney was exposed to CS alone for 4 h at 4° C. […]
Renal sections were assessed for tissue injury using the periodic acid-Schiff reaction. […] Morphological evaluation of tubular dilation, brush border loss, and cellular debris/tubular cast formation were performed blindly with light microscopy and assessed semiquantitatively according to the following scoring system: 0, no changes; 1, mild changes; 2, moderate changes, and 3, severe changes.

In the case of COC1=C(OC)C(=O)C(CCCCCCCCCC[P+](c2ccccc2)(c2ccccc2)c2ccccc2)=C(C)C1=O [MitoQ, mitoquinone], the “decrease of cell death (LDH cytotoxicity)” value ([1]; CS alone) is reported as “approximately 2 fold”, the “decrease of cell death (LDH cytotoxicity)” value ([1]; CS.RW) is reported as “approximately 2 fold” and the “CS-induced mitochondrial superoxide generation (MitoSOX Red)” value [2] is reported as “significant protection”. The “renal histology / renal injury (periodic acid-Schiff staining)” value [3] was “improved renal histology significantly”.
